Source: patent US4579947A, “Substituted phenylalkylpiperazinylpropyl (ureas or thioureas) useful for treatment of immunological, inflammatory and allergic disorder” (Boehringer Ingelheim Pharmaceuticals, Inc., priority 1984, dated 1986)
Structures can show the parent of a compound that is named as a salt.

Columns and labels:
[1] = tested on: human leukocytes (basophils); assay: Inhibition of human leukocyte (basophil) histamine release in vitro (rabbit anti-human IgE); format: cell-based; settings: Leukocyte, 1 h, Table A, 60 minutes at 37° C., Int. = interference with test procedure, read-out: Inhibition IC50 (histamine release from human leukocytes (basophils))
Method: Separation of Leukocytes: A modification of the method of L. Lichtenstein and A. Osler, J.Exp.Med. 120, 507 (1964) was used. Heparinized human blood (80-100 ml) is mixed with 20 ml of saline (0.2%) containing 0.6 gm of dextrose and 1.2 gm dextran in propylene centrifuge tubes. The mixture is kept at ambient temperature for 60-90 minutes to allow the separation of erythrocytes from the platelet-leukocyte-rich supernate. The supernate is removed and centrifuged for 8 minutes at 110×g in cold. The leukocyte pellet is washed 2× with Tris buffer and finally suspended in 150-180 ml Tris-ACM buffer at 1-2×10^6 cells/ml. 2. Reaction Mixture: The reaction is carried out in 12×75 mm plastic tubes at a total volume of 1.25 ml. The reaction medium includes 0.05 ml rabbit anti-human IgE (the antigen), 0.2 ml of the test compound in water at concentrations ranging from 10-1000 μM, and 1.0 ml of the leukocyte suspension. The reaction mixture is incubated in a 37° C. shaking water bath for 60 minutes. Upon completion of the reaction, the tubes are centrifuged and the supernatants collected. The protein is removed from the supernatants by precipitation with 0.2 ml of 8% perchloric acid. 3. Histamine Assay: Histamine release is measured by the automated fluorometric method of W. Siraganian and W. Hook in Chapter 102 of the Manual of Clinical Immunology, 2nd Edition, Edited by R. Rose and H. Friedman, Published by the American Society for Microbiology, Washington, D.C. 1980. Percent inhibition is calculated as follows: [formula] The concentration which causes a 50 percent inhibition (IC50) of histamine release is interpolated from a plot of percent inhibition versus logarithm of drug concentration.

[2] = tested on: isolated guinea pig ileum; assay: Antagonism of histamine-induced contraction of isolated guinea pig ileum; format: cell-based; settings: Cavia porcellus; Table C; histamine final concentration 0.2 μg/ml; read-out: Inhibition IC50 (histamine-induced contraction of isolated guinea pig ileum)
Method: The antagonism of the effects of histamine on the contraction of isolated guinea pig ileum by the compounds of formula I can be determined by the procedure of G. Possanza, A. Bauen, and P. Stewart, Int. Arch. Allergy Appl. Immunol., 49, 289 (1975). The degree of inhibition is determined as the difference between the contraction caused by histamine (final concentration 0.2 μg/ml) alone and that seen in the presence of both histamine and the test compound. The inhibitory activity of the test compound is expressed as that concentration of the compound which causes a 50% reduction of the contractile response (IC50).

CNS = assay: Standard mouse neuropharmacological profile; format: in vivo
Source text: With the exception of the compounds wherein R4 is a lower alkyl group from 7 to 12 carbon atoms, the compounds of formula I inhibit in vitro the histamine-induced contraction of isolated guinea pig ileum and are useful in warm-blooded animals for antagonizing the action of histamine at the histamine (H1) receptor. Accordingly, the compounds of formula I can be employed as antihistamine agents for the treatment of allergic disorders, for example allergic rhinitis, vasomotor rhinitis, allergic conjunctivitis, hay fever, urticaria, and food allergies. Certain compounds of formula I lack the CNS side effects, such as sedation, normally associated with antihistamine therapy.

[3] = tested on: rat peritoneal mast cells; assay: Inhibition of rat peritoneal mast cell histamine release; format: cell-based; settings: Mast cell, 1 h; Table B; in vitro, sheep anti-rat IgE or ovalbumin, 60 minutes at 37° C.; Int. = interference with test procedure; read-out: Inhibition IC50 (histamine release from rat peritoneal mast cells)
Method: Harvest of Peritoneal Mast Cells: After the rats are sacrificed with ether, 20 ml of Minimum Essential Medium (MEM) containing 20 units/ml heparin is injected into the peritoneum. The abdomen is massaged for one minute and the lavage fluid collected. The peritoneal cells are centrifuged at 1800 rpm for 8 minutes in cold. After two washes with Tris A buffer, the cells are resuspended in Tris ACM buffer at 2-33 10^6 cells/ml. 2. Reaction Mixture: The reaction is carried out in 12×75 mm plastic tubes at a total volume of 1.25 ml. The reaction mixture includes 0.5 ml (10-1000 μg) sheep anti-rat IgE or ovalbumin, 0.2 ml of the test compound in water at concentrations ranging from 10-1000 μM, 0.5 ml phosphatidylserine solution (20-60 μg to each tube), and 0.5 ml of cell suspension. The reaction mixture is incubated in a 37° C. shaking water bath for 60 minutes. Upon completion of the reaction, the tubes are centrifuged and the supernatants collected. The protein is removed from the supernatants by precipitation with 0.2 ml of 8% perchloric acid. 3. Histamine Assay: Histamine release is measured by the automated fluorometric method of Siraganian, supra. The concentration which causes a 50% inhibition (IC50) of histamine release is computed as in Part A.

| IC50 [1] | IC50 [2] | CNS effects (CNS) | IC50 [3] | Compound |
| --- | --- | --- | --- | --- |
| 190 µM | 0.11 µM | not to exert significant CNS effects | – | CCOC(=O)c1ccc(NC(=O)NCCCN2CCN(Cc3ccc(Cl)cc3)CC2)cc1.Cl [Example 13, 1-{3-[4-(4-Chlorobenzyl)piperazin-1-yl]propyl}-3-(4-ethoxycarbonylphenyl)urea hydrochloride] |
| 8 µM | 0.05 µM | – | 110 µM | CCCCCCNC(=O)NCCCN1CCN(Cc2ccc(Cl)cc2)CC1 [Example 4, 1-{3-[4-(4-Chlorobenzyl)piperazin-1-yl]propyl}-3-n-hexylurea dihydrochloride] |
| > 1000 µM | 0.21 µM | not to exert significant CNS effects | – | Cl.O=C(NCCCN1CCN(Cc2ccc(Cl)cc2)CC1)Nc1ccc(C(=O)O)cc1 [Example 14, 1-{3-[4-(4-Chlorobenzyl)piperazin-1-yl]propyl}-3-(4-carboxyphenyl)urea hydrochloride] |
